Results taken from ChEMBL document CHEMBL4715849, “Recent Progress in the Discovery of Antifungal Agents Targeting the Cell Wall” (J Med Chem, 2020).
Converted amounts (≈) assume the structure as drawn. Values belong to the compound of their own block, whether it stands above or below them.

Legend:
Candida albicans [1] = experiment: Antifungal activity against Candida albicans AMB-25 incubated for 48 hrs by serial two-fold dilution method; format: functional
Candida albicans [2] = experiment: Antifungal activity against Candida albicans K335 by agar incorporation method; format: functional
Candida parapsilosis [3] = experiment: Antifungal activity against Candida parapsilosis K332 by agar incorporation method; format: functional; conditions: Lodderomyces parapsilosis
Cyberlindnera jadinii = experiment: Antifungal activity against Candida utilis K482 by agar incorporation method; format: functional; conditions: Williopsis jadinii
Candida parapsilosis [4] = experiment: Antifungal activity against Candida parapsilosis K1154 by agar incorporation method; format: functional; conditions: Lodderomyces parapsilosis
Candida albicans [5] = experiment: Antifungal activity against Candida albicans K341 by agar incorporation method; format: functional
Candida tropicalis [6] = experiment: Antifungal activity against Candida tropicalis K1155 by agar incorporation method; format: functional
[7] = system: Meyerozyma guilliermondii; experiment: Antifungal activity against Candida guilliermondii K334 by agar incorporation method; format: functional
Candida albicans [8] = experiment: Antifungal activity against Candida albicans K1133 by agar incorporation method; format: functional
Candida tropicalis [9] = experiment: Antifungal activity against Candida tropicalis K337 by agar incorporation method; format: functional
Pichia kudriavzevii = experiment: Antifungal activity against Candida krusei K1153 by agar incorporation method; format: functional
Candida albicans [10] = experiment: Antifungal activity against Candida albicans K1082 by agar incorporation method; format: functional
Candida albicans [11] = experiment: Antifungal activity against Candida albicans incubated for 24 hrs by turbidimetric method; format: functional
Candida albicans [12] = experiment: Antifungal activity against Candida albicans ATCC 262 incubated for 24 hrs by turbidimetric method; format: functional
[13] = Inhibition of fungi 1,3-beta-D-glucan synthase
Aspergillus fumigatus = experiment: Antifungal activity against Aspergillus fumigatus CF1083 infected in iv dosed mouse model of pulmonary aspergillosis administered once daily for 4 days and measured on day 14; format: functional; conditions: 336 h, time 14 day
Candida albicans [14] = experiment: Antifungal activity against Candida albicans infected in mouse assessed as protection against fungus-induced lethal infection; format: functional; conditions: read-out: PD50
[15] = Inhibition of Candida albicans IFO1060 1,3-beta-D-glucan synthase

Structure (SMILES): COC(=O)/C=C/C(=O)NC[C@H](N)C(=O)N[C@@H](CCSC)C(=O)O
MIC (Candida albicans [1]): 0.4 µg/mL (≈ 1.15 µM)

Structure (SMILES): COC(=O)/C=C/C(=O)NC[C@H](N)C(=O)N[C@H](C(=O)O)C(C)C
MIC (Candida albicans [1]): 0.4 µg/mL (≈ 1.27 µM)

Structure (SMILES): COC(=O)/C=C/C(=O)NC[C@H](N)C(=O)N[C@@H](Cc1ccccc1)C(=O)O
MIC (Candida albicans [1]): 0.4 µg/mL (≈ 1.1 µM)

Structure (SMILES): CCCC(NC(=O)[C@@H](N)CNC(=O)/C=C/C(=O)OC)C(=O)O (some centres not stated)
MIC (Candida albicans [1]): 0.4 µg/mL (≈ 1.27 µM)

Structure (SMILES): CCCC(NC(=O)[C@@H](N)CCSC)C(=O)N[C@@H](CNC(=O)/C=C/C(=O)OC)C(N)=O (some centres not stated)
MIC (Candida albicans [11]): 0.025 µg/mL (≈ 0.0561 µM) | MIC (Candida albicans [12]): 0.025 µg/mL (≈ 0.0561 µM)

Structure (SMILES): COC(=O)/C=C/C(=O)NC[C@H](N)C(=O)N[C@@H](C)C(=O)O
MIC (Candida albicans [1]): 0.4 µg/mL (≈ 1.39 µM)

Structure (SMILES): COc1cc(O)c2c(c1)C(=O)c1c(cc3c(c1O)-c1c(cc(C)c(C(=O)NC(C)C(=O)O)c1O)[C@H](O[C@@H]1O[C@H](C)[C@H](O)[C@H](O[C@@H]4OC[C@@H](O)[C@H](O)[C@H]4O)[C@H]1O)[C@H]3O)C2=O (some centres not stated)
ED50 (Candida albicans [14]): 71 mg/kg

Structure (SMILES): COC(=O)/C=C/C(=O)NC[C@H](NC(=O)[C@H](CCSC)NC(=O)[C@@H](N)CCSC)C(N)=O
MIC (Candida albicans [11]): 0.025 µg/mL (≈ 0.0523 µM) | MIC (Candida albicans [12]): 0.025 µg/mL (≈ 0.0523 µM)

Structure (SMILES): CCCCC(N)C(=O)N[C@@H](CNC(=O)/C=C/C(=O)OC)C(=O)O (some centres not stated)
MIC (Candida albicans [1]): 0.4 µg/mL (≈ 1.21 µM)

Structure (SMILES): COC(=O)/C=C/C(=O)NC[C@H](NC(=O)[C@H](N)C(C)C)C(=O)O
MIC (Candida albicans [1]): 0.4 µg/mL (≈ 1.27 µM)

Structure (SMILES): COC(=O)/C=C/C(=O)NC[C@H](NC(=O)[C@@H](C)N)C(=O)O
MIC (Candida albicans [1]): 0.4 µg/mL (≈ 1.39 µM)

The next lines start with results.

MIC (Candida albicans [2]): 0.1 µg/mL (≈ 0.111 µM) | MIC (Candida parapsilosis [3]): 0.1 µg/mL (≈ 0.111 µM) | MIC (Cyberlindnera jadinii): 0.1 µg/mL (≈ 0.111 µM) | MIC (Candida parapsilosis [4]): 0.1 µg/mL (≈ 0.111 µM) | MIC (Candida albicans [5]): 0.1 µg/mL (≈ 0.111 µM) | MIC (Candida tropicalis [6]): 0.1 µg/mL (≈ 0.111 µM) | MIC [7]: 0.1 µg/mL (≈ 0.111 µM) | MIC (Candida albicans [8]): 0.1 µg/mL (≈ 0.111 µM) | MIC (Candida tropicalis [9]): 0.1 µg/mL (≈ 0.111 µM) | MIC (Pichia kudriavzevii): 0.1 µg/mL (≈ 0.111 µM) | MIC (Candida albicans [10]): 0.1 µg/mL (≈ 0.111 µM)
Structure (SMILES): CCC(O)/C=C/C=C/C=C/C(=O)OC[C@H]1O[C@@H](O[C@H]2[C@H](OC(=O)/C=C/C=C/C[C@H](O)/C(C)=C/C=C/CC[C@@H](C)CC)[C@@H](O)[C@@]3(OCc4cc(O)cc(O)c43)O[C@@H]2CO)[C@H](O)[C@@H](O)[C@H]1O (some centres not stated)

MIC (Candida albicans [1]): 0.4 µg/mL (≈ 1.05 µM)
Structure (SMILES): COC(=O)/C=C/C(=O)NC[C@H](N)C(=O)N[C@@H](Cc1ccc(O)cc1)C(=O)O

MIC (Candida albicans [11]): 0.025 µg/mL (≈ 0.0597 µM) | MIC (Candida albicans [12]): 0.025 µg/mL (≈ 0.0597 µM)
Structure (SMILES): COC(=O)/C=C/C(=O)NC[C@H](N)C(=O)N[C@@H](CCSC)C(=O)N[C@@H](C)C(=O)O

IC50 [13]: 0.9 nM
Structure (SMILES): CCCCCCCCCCCCC[C@H]1OC(=O)[C@H](CCCNC(=O)[C@@H](CCCN)N(CCN)CCN)NC(=O)[C@@H]([C@@H](C)O)NC(=O)CNC(=O)[C@H]([C@H](O)CC(N)=O)NC(=O)[C@H]2[C@@H](O)CCN2C(=O)[C@H]([C@@H](C)O)NC(=O)[C@@H]2C[C@@H](O)CN2C(=O)[C@H](C(C)C)NC(=O)[C@H](Cc2ccc(O)cc2)NC(=O)[C@@H](C)NC(=O)[C@H]([C@@H](C)O)NC1=O
ED50 (Aspergillus fumigatus): 5.2 mg/kg

MIC (Candida albicans [11]): 0.025 µg/mL (≈ 0.0603 µM) | MIC (Candida albicans [12]): 0.05 µg/mL (≈ 0.121 µM)
Structure (SMILES): CCC[C@H](NC(=O)[C@H](CNC(=O)/C=C/C(=O)OC)NC(=O)[C@@H](N)CCC)C(=O)O

MIC (Candida albicans [11]): 0.025 µg/mL (≈ 0.0458 µM) | MIC (Candida albicans [12]): 0.025 µg/mL (≈ 0.0458 µM)
Structure (SMILES): COC(=O)/C=C/C(=O)NC[C@H](NC(=O)[C@H](CCSC)NC(=O)[C@@H](N)CNC(=O)/C=C/C(=O)OC)C(=O)O

MIC (Candida albicans [11]): 0.025 µg/mL (≈ 0.0522 µM) | MIC (Candida albicans [12]): 0.025 µg/mL (≈ 0.0522 µM)
Structure (SMILES): COC(=O)/C=C/C(=O)NC[C@H](NC(=O)[C@@H](N)CCSC)C(=O)N[C@@H](CCSC)C(=O)O

MIC (Candida albicans [2]): 0.1 µg/mL (≈ 0.113 µM) | MIC (Candida parapsilosis [3]): 0.1 µg/mL (≈ 0.113 µM) | MIC (Cyberlindnera jadinii): 0.1 µg/mL (≈ 0.113 µM) | MIC (Candida parapsilosis [4]): 0.1 µg/mL (≈ 0.113 µM) | MIC (Candida albicans [5]): 0.1 µg/mL (≈ 0.113 µM) | MIC (Candida tropicalis [6]): 0.1 µg/mL (≈ 0.113 µM) | MIC [7]: 0.1 µg/mL (≈ 0.113 µM) | MIC (Candida albicans [8]): 0.1 µg/mL (≈ 0.113 µM) | MIC (Candida tropicalis [9]): 0.1 µg/mL (≈ 0.113 µM) | MIC (Pichia kudriavzevii): 0.1 µg/mL (≈ 0.113 µM) | MIC (Candida albicans [10]): 0.1 µg/mL (≈ 0.113 µM)
Structure (SMILES): CCCCC/C=C/C=C/C(=O)OC[C@H]1O[C@@H](O[C@H]2[C@H](OC(=O)/C=C/C=C/C[C@H](O)/C(C)=C/C=C/CC[C@@H](C)CC)[C@@H](O)[C@@]3(OCc4cc(O)cc(O)c43)O[C@@H]2CO)[C@H](O)[C@@H](O)[C@H]1O

IC50 [15]: 2 nM
Structure (SMILES): CCCCCCCCCCCCC[C@H]1OC(=O)[C@H](CCCN(CCN)CCN)NC(=O)[C@@H]([C@@H](C)O)NC(=O)CNC(=O)[C@H]([C@H](O)CC(N)=O)NC(=O)[C@H]2[C@@H](O)CCN2C(=O)[C@H]([C@@H](C)O)NC(=O)[C@@H]2C[C@@H](O)CN2C(=O)[C@H](C(C)C)NC(=O)[C@H](Cc2ccc(O)cc2)NC(=O)[C@@H](C)NC(=O)[C@H]([C@@H](C)O)NC1=O
